From PubChem BioAssay (NCI)
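Dose response: 5 concentrations. Exposure: 48 h. Format: 96-well plates. Endpoint: linear interpolation; highest concentration if not reached. TGI: concentration producing complete growth inhibition.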

Legend:
Assay in all cases: growth of human tumour cells (NCI), 48 h
[1] = tested on: NCI-H522 lung
[2] = tested on: TK-10 renal
[3] = tested on: UACC-62 melanoma
[4] = tested on: ACHN renal
[5] = tested on: PC-3 prostate
[6] = tested on: HL-60(TB) leukemia
[7] = tested on: HS 578T breast
[8] = tested on: HOP-62 NSCLC
[9] = tested on: MDA-N
[10] = tested on: T-47D breast
[11] = tested on: SW-620 colon
[12] = tested on: NCI-H226 lung
[13] = tested on: SF-539 CNS
[14] = tested on: A549 NSCLC
[15] = tested on: SK-MEL-2 melanoma
[16] = tested on: NCI-H23 lung
[17] = tested on: IGROV1 ovarian
[18] = tested on: SK-MEL-28 melanoma
[19] = tested on: SNB-75 CNS
[20] = tested on: K-562 leukemia

Row | SMILES | TGI [1] [µM] | TGI [2] [µM] | TGI [3] [µM] | TGI [4] [µM] | TGI [5] [µM] | TGI [6] [µM] | TGI [7] [µM] | TGI [8] [µM] | TGI [9] [µM] | TGI [10] [µM] | TGI [11] [µM] | TGI [12] [µM] | TGI [13] [µM] | TGI [14] [µM] | TGI [15] [µM] | TGI [16] [µM] | TGI [17] [µM] | TGI [18] [µM] | TGI [19] [µM] | TGI [20] [µM]
1 | CCCCSC1=N/C(=C\c2ccccc2O)C(Cl)=N1 | > 100 | > 100 | > 100 | > 100 | > 100 | > 100 | > 100 | > 100 | > 100 | > 100 | > 100 | > 100 | > 100 | > 100 | > 100 | > 100 | > 100 | > 100 | > 100 | –
2 | FC(F)(Sc1nc2ccccc2[nH]1)c1nc2ccccc2o1 | 31.8 | > 100 | > 100 | > 100 | > 100 | – | > 100 | > 100 | > 100 | > 100 | > 100 | > 100 | > 100 | > 100 | > 100 | > 100 | > 100 | > 100 | > 100 | > 100
3 | COc1ccc2c(C=O)c3n(c(=O)c2c1OC)CCc1cc2c(cc1-3)OCO2 | > 100 | > 100 | > 100 | > 100 | > 100 | > 100 | > 100 | > 100 | > 100 | > 100 | > 100 | > 100 | > 100 | > 100 | > 100 | > 100 | > 100 | > 100 | > 100 | –
4 | C/C(=C\CNc1ncnc2c1ncn2CCC#N)CO | > 100 | > 100 | > 100 | > 100 | > 100 | > 100 | > 100 | > 100 | > 100 | > 100 | > 100 | > 100 | > 100 | > 100 | – | > 100 | > 100 | > 100 | > 100 | > 100
5 | Cc1cc(NS(=O)(=O)c2ccc(NC(NC(=O)OC(C)C)(C(F)(F)F)C(F)(F)F)cc2)nc(C)n1 | – | > 100 | > 100 | > 100 | > 100 | > 100 | > 100 | > 100 | > 100 | > 100 | > 100 | > 100 | > 100 | > 100 | – | > 100 | > 100 | > 100 | > 100 | > 100
6 | CC(C)[C@H](NC(=O)OCc1ccccc1)C(=O)N[C@H](/C=C/C(=O)OC(C)(C)C)CO | > 100 | > 100 | > 100 | > 100 | > 100 | > 100 | > 100 | > 100 | > 100 | > 100 | > 100 | > 100 | > 100 | > 100 | > 100 | > 100 | > 100 | > 100 | – | –
7 | CC(=O)OC1C(C)OC(OC2C[C@](O)(C(C)=O)Cc3c(O)c4c(c(O)c32)C(=O)c2ccccc2C4=O)C(F)C1OC(C)=O (some centres not stated) | 4.29 | 4.29 | 2.81 | 0.704 | 22.4 | – | 9.89 | 13.8 | > 100 | 41.2 | > 100 | 2.86 | 1.03 | 2.17 | 11.3 | 1.81 | 9.34 | > 31.3 | 4.33 | > 100
8 | CCN(CC)CCCNc1nnc(C)c2[nH]c3ccccc3c12 | 21.3 | 67.2 | 27.9 | 59.9 | 45.2 | 27.4 | 38 | 35.5 | 29.2 | 68.9 | > 100 | – | 5.86 | 53 | 33.3 | 38.8 | 44.3 | 40.6 | 38.8 | > 100
9 | CC1SCCc2nc3ccccc3n21 (configuration not stated) | – | > 100 | > 100 | – | > 100 | > 100 | > 100 | > 100 | > 100 | > 100 | > 100 | > 100 | > 100 | > 100 | > 100 | > 100 | > 100 | > 100 | > 100 | > 100
10 | CCOP(=O)(OCC)/C(C#N)=C(\C)c1ccco1 | – | > 10 | > 10 | > 10 | > 10 | > 10 | > 10 | > 10 | > 10 | > 10 | > 10 | > 10 | > 10 | > 10 | > 10 | > 10 | > 10 | > 10 | > 10 | > 10
